# Data from US9441012B2, “Fluorinated epoxyketone-based compounds and uses thereof as proteasome inhibitors” (FLUORINOV PHARMA INC., priority 2012, dated 2016).
# What was measured:
# [1] = system: M14; experiment: NCI 60 human tumor cell line screen (SRB); assay type: cell-based; conditions: M14 (Melanoma); 48 h
# How it was run: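 Cells plated 24 h before dosing, with time-zero plates TCA-fixed at drug addition; five concentrations (10-fold or ½-log dilutions) added and incubated 48 h at 37 °C, 5% CO2. Adherent cells fixed with 10% TCA, stained with 0.4% SRB, absorbance read at 515 nm; GI50, TGI and LC50 derived from percentage growth versus time zero and control.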
# [2] = system: NCI-H460; experiment: NCI 60 human tumor cell line screen (SRB); assay type: cell-based; conditions: NCI-H460 (Non-Small Cell Lung Cancer); 48 h
# [3] = system: chymotrypsin-like (CT-L) proteasome activity, OCI-AML-2; experiment: Proteasome enzymatic activity (tumor cell lysates); assay type: biochemical, human; conditions: OCI-AML-2 cell lysate; mean ± standard deviation
# Method: Cells were harvested by centrifugation at 1,200 rpm at room temperature. Cell pellets were washed with PBS and lysed with assay lysis buffer (50 mM HEPES (N-2-hydroxyethylpiperazine-N′-2-ethanesulfonic acid), pH 7.5; 150 mM NaCl; 1% Triton X-100; 2 mM ATP). Cell lysates were incubated on ice for 30 minutes, mixed by vortex every 5 minutes, and then centrifuged at 12,000 g for 10 minutes. The supernatant was transferred to a 96-well plate. For each assay, 10 μg of total protein were incubated for 1 hour at 37° C. with increasing concentrations (1 nM to 10 μM) of test compound diluted in assay buffer (50 mM Tris-HCl (tris(hydroxymethyl)aminomethane-HCl), pH 7.5; 150 mM NaCl). DMSO alone was used as a control in every assay plate. After incubation, a specific fluorogenic proteasome substrate was added to each assay reaction at a final concentration of 40 μM in a total volume of 100 μL. N-Succinyl-Leu-Leu-Val-Tyr-7-amino-4-methylcoumarin (Suc-Leu-Leu-Val-Tyr-AMC) was used for measuring chymotrypsin-like (CT-L) activity, t-butoxycarbonyl-Leu-Arg-Arg-7-amino-4-methylcoumarin (Boc-Leu-Arg-Arg-AMC) for trypsin-like (T-L) activity, and benzyloxycarbonyl-L-leucyl-L-leucyl-L-glutamyl-7-amino-4-methylcoumarin (Z-Leu-Leu-Glu-AMC) for caspase-like (C-L) activity. The excitation wavelength was set at 360 nm and the fluorescence emission wavelength of AMC was detected at 460 nm. The fluorescence of free AMC released during the enzymatic reaction was measured with a SpectraMax M5 fluorescent spectrophotometric plate reader (Molecular Devices, Sunnyvale, Calif.). AMC release rate was measured at 37° C. in a kinetic mode, recording every 5 minutes for 30 minutes. Experiments were performed in triplicate and repeated at least twice.
# Table 9 summarizes data obtained for representative compounds of Formula I for cell viability and CT-L proteasome activity using OCI-AML-2 and KMS-11 cell lines.
# [4] = system: SR; experiment: NCI 60 human tumor cell line screen (SRB); assay type: cell-based; conditions: SR (Leukemia); 48 h
# [5] = system: SK-MEL-2; experiment: NCI 60 human tumor cell line screen (SRB); assay type: cell-based; conditions: SK-MEL-2 (Melanoma); 48 h
smiles,measurement,setting,value
"Cc1ncc(C(=O)N[C@@H](COC(F)F)C(=O)N[C@@H](COC(F)F)C(=O)N[C@@H](Cc2ccccc2)C(=O)[C@@]2(C)CO2)s1 [Example 1, 2-methyl-thiazole-5-carboxylic acid ((S)-1-{(S)-1-[(S)-1-benzyl-2-((R)-2-methyloxiranyl)-2-oxo-ethylcarbamoyl]-2-difluoromethoxyethylcarbamoyl}-2-difluoromethoxyethyl)-amide]",Log10GI50,[1],−6.86
same,Log10LC50,[1],−4.35
same,Log10TGI50,[1],−6.24
same,Log10GI50,[2],−6.48
same,Log10LC50,[2],−5.12
same,Log10TGI50,[2],−5.84
same,IC50,[3],39.2 ± 2.12 nM
same,Log10GI50,[4],−7.30
same,Log10LC50,[4],>−4.00
same,Log10TGI50,[4],>−4.00
"CC(C)C[C@H](NC(=O)[C@H](Cc1ccccc1)NC(=O)[C@H](COC(F)F)NC(=O)CN1CCOCC1)C(=O)[C@@]1(C)CO1 [Example 25, (2S)-2-[[(2S)-3-(difluoromethoxy)-2-[(2-morpholinoacetyl)amino]propanoyl]amino]-N-[(1S)-3-methyl-1-[(2R)-2-methyloxirane-2-carbonyl]butyl]-3-phenyl-propanamide]",Log10GI50,[5],−7.54
same,Log10LC50,[5],−5.46
same,Log10TGI50,[5],−7.03
same,Log10GI50,[1],−7.48
same,Log10LC50,[1],>−4.00
same,Log10TGI50,[1],−6.71
same,Log10GI50,[2],−7.21
same,Log10LC50,[2],−4.13
same,Log10TGI50,[2],−6.43
same,Log10GI50,[4],−7.71
same,Log10LC50,[4],>−4.00
same,Log10TGI50,[4],>−4.00
"C[C@]1(C(=O)[C@H](Cc2ccccc2)NC(=O)[C@H](COC(F)F)NC(=O)[C@H](COC(F)F)NC(=O)CN2CCOCC2)CO1 [Example 26, (S)-N-{(S)-1-[(S)-1-Benzyl-2-((R)-2-methyl-oxiranyl)-2-oxo-ethylcarbamoyl]-2-difluoromethoxyethyl}-3-difluoromethoxy-2-(2-morpholin-4-yl-acetylamino)-propio-namide]",Log10GI50,[5],−7.54
same,Log10LC50,[5],−5.46
same,Log10TGI50,[5],−7.03
same,Log10GI50,[1],−7.48
same,Log10LC50,[1],>−4.00
same,Log10TGI50,[1],−6.71
same,Log10GI50,[2],−7.21
same,Log10LC50,[2],−4.13
same,Log10TGI50,[2],−6.43
same,IC50,[3],358 ± 177 nM
same,Log10GI50,[4],−7.71
same,Log10LC50,[4],>−4.00
same,Log10TGI50,[4],>−4.00
C[C@]1(C(=O)[C@H](Cc2ccccc2)NC(=O)[C@H](Cc2ccccc2)NC(=O)[C@H](COC(F)F)NC(=O)CN2CCOCC2)CO1 [Example 29],Log10GI50,[5],−7.19
same,Log10LC50,[5],>−4.00
same,Log10TGI50,[5],−6.02
same,Log10GI50,[1],−7.21
same,Log10LC50,[1],>−4.00
same,Log10TGI50,[1],−5.85
same,Log10GI50,[2],−6.49
same,Log10LC50,[2],>−4.00
same,Log10TGI50,[2],−5.87
same,IC50,[3],132 ± 10.4 nM
same,Log10GI50,[4],−7.69
same,Log10LC50,[4],>−4.00
same,Log10TGI50,[4],−4.36
